Measured values: PubChem BioAssay (NCI)
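Grown in 96-well plates, cells were treated for 48 hours with each compound at five concentrations. Insufficient inhibition: endpoint recorded as highest concentration tested. At the GI50, growth is halved. The concentration for full growth arrest is given as TGI.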

Tests used:
Test in all cases: DTP human tumour cell line panel, 48 h
[1] = tested on: HOP-62 NSCLC
[2] = tested on: MALME-3M melanoma
[3] = tested on: MCF7 breast
[4] = tested on: MOLT-4 leukemia
[5] = tested on: NCI-H226 lung
[6] = tested on: OVCAR-4 ovarian
[7] = tested on: SF-295 CNS
[8] = tested on: SF-539 CNS
[9] = tested on: SK-MEL-5 melanoma
[10] = tested on: U251 CNS

Row | SMILES | GI50 [1] | TGI [1] | GI50 [2] | TGI [2] | GI50 [3] | TGI [3] | GI50 [4] | TGI [4] | GI50 [5] | TGI [5] | GI50 [6] | TGI [6] | GI50 [7] | TGI [7] | GI50 [8] | TGI [8] | GI50 [9] | TGI [9] | GI50 [10] | TGI [10]
1 | Cn1cc(-c2csc(-c3cn(C)c4ncccc34)n2)c2ccccc21 | 0.622 µM | 19.3 µM | 0.647 µM | 41 µM | 0.322 µM | > 100 µM | 0.613 µM | > 52.2 µM | 0.86 µM | 26.7 µM | 7.1 µM | 44 µM | 0.274 µM | 12.6 µM | 0.158 µM | 0.579 µM | 0.286 µM | 16.2 µM | 0.404 µM | 13.3 µM
2 | COc1ccc(C(NCCNC(c2ccc(OC)c(OC)c2)c2cc3c(cc2O)OCO3)c2cc3c(cc2O)OCO3)cc1OC (stereo not given) |  | 30.6 µM |  | 15.4 µM |  | 3.36 µM |  | > 100 µM |  | 39.1 µM |  | 11.5 µM |  | 17.8 µM |  | 6.09 µM |  | 19.9 µM |  | 7.03 µM
3 | O=C(CN1c2ccccc2Sc2ccccc21)n1cnc2ccccc21 |  | > 100 µM |  | > 100 µM |  | > 100 µM |  | > 100 µM |  | > 100 µM |  | > 100 µM |  | > 100 µM |  | > 100 µM |  | > 100 µM |  | > 100 µM
4 | COc1cc2c(cc1OCCCN1CCN(CCCOc3cc4c(cc3OC)C(=O)C3CCC[C@H]3C=N4)CC1)N=C[C@@H]1CCCC1C2=O (stereo not given in full) | 4.78 µM | > 100 µM | 2.83 µM | 21.5 µM | 1.44 µM | > 100 µM | 0.313 µM | 2.53 µM | 13.2 µM | > 100 µM | 74.3 µM | > 100 µM | 9.4 µM | 79.8 µM | 0.614 µM | 16.4 µM | 2.2 µM | 6.4 µM | 4.91 µM | > 100 µM
5 | c1ccc(COc2ccc(Nc3ncnc4ccc(-c5ccco5)cc34)cc2)cc1 | 5.85 µM | 16 µM | 6.04 µM | > 21.1 µM | 0.572 µM | > 13.5 µM | 11.7 µM | > 25 µM | 5.73 µM | > 21.5 µM | 4.69 µM | 17.1 µM | 8.62 µM | > 25 µM | 8.83 µM | > 25 µM | 2.96 µM | 6.79 µM | 6.99 µM | > 25 µM
6 | CCN=C(N)CSS(=O)(=O)O |  | > 100 µM |  | > 100 µM |  | > 100 µM |  | > 100 µM |  | > 100 µM |  | > 100 µM |  | > 100 µM |  | > 100 µM |  | > 100 µM |  | > 100 µM
7 | CC1(C)OCC(C2OC(On3nnc4ccc(Cl)cc43)C3OC(C)(C)OC23)O1 (stereo not given) |  | > 100 µM |  | > 100 µM |  | > 100 µM |  | > 100 µM |  | > 100 µM |  | > 100 µM |  | > 100 µM |  | > 100 µM |  | > 100 µM |  | > 100 µM
8 | Cn1cccc1C1CC(=O)N(CCC[Se]C#N)C1=O (stereo not given) | 1.88 µM | 3.77 µM | 1.89 µM | 4.12 µM | 2.85 µM | 14.6 µM | 2.16 µM | 7.43 µM | 1.62 µM | 4.3 µM | 2.35 µM | 14 µM | 1.81 µM | 3.29 µM | 1.96 µM | 3.66 µM | 1.96 µM | 4.05 µM | 1.72 µM | 3.48 µM
9 | CCN(CC)c1ccc(/C=C/C2=[N+](C)c3ccccc3C2(C)C)cc1 | 0.697 µM | 16.3 µM | 0.29 µM | 3.29 µM | 0.307 µM | 18.5 µM | 0.557 µM | > 100 µM | 0.992 µM | 18.7 µM | 0.292 µM | 29.7 µM | 0.374 µM | 22.2 µM | 0.776 µM | 13.9 µM | 0.28 µM | 1.31 µM | 0.201 µM | 21.6 µM
10 | CC(=O)C(CN1CCOCC1)C(c1ccccc1)c1c(O)c2ccccc2oc1=O (stereo not given) |  | > 100 µM |  | > 100 µM |  | > 100 µM |  | > 100 µM |  | > 100 µM |  | > 100 µM |  | > 100 µM |  | > 100 µM |  | > 100 µM |  | > 100 µM
11 | COc1ccc2c(c1)CC[C@@H]1C2CC[C@]2(C)C(=O)N(C)C(=O)CC12 (stereo not given in full) |  | > 100 µM |  | > 100 µM |  | > 100 µM |  | > 100 µM |  | > 100 µM |  | > 100 µM |  | > 100 µM |  | > 100 µM |  | > 100 µM |  | > 100 µM
12 | Oc1ccc(-c2nc(-c3ccc(F)cc3)c(-c3ccncc3)[nH]2)cc1 | 36.7 µM | > 100 µM | 2.45 µM | 9.13 µM | 19.4 µM | > 100 µM | 7.97 µM | 32.5 µM | 28.3 µM | > 100 µM | 16.5 µM | > 100 µM | 20.2 µM | > 100 µM | 25.7 µM | > 100 µM | 4.73 µM | 29.6 µM | 25.5 µM | > 100 µM
13 | COc1cc(-c2cn(-c3ccc(Cl)cc3)c(=O)n2-c2ccccc2)cc(OC)c1OC | > 85.3 µM | > 100 µM | > 49.8 µM | > 94.9 µM | > 53.5 µM | > 100 µM | 59.6 µM | > 100 µM | 82.1 µM | > 100 µM | 21.4 µM | > 90.7 µM | 55.7 µM | > 100 µM | 61.5 µM | > 100 µM | 25.3 µM | > 100 µM | 33.7 µM | > 100 µM
14 | OCCC#Cc1ccccc1C#Cc1ccccc1 | 18.7 µM | 33.9 µM | 14 µM | 27.1 µM | 22.7 µM | 46.5 µM | 9.84 µM | 51.9 µM | 15.2 µM | 33.2 µM | 24.1 µM | 72.4 µM | 5.47 µM | 19.8 µM | 12.7 µM | 27 µM | 12 µM | 25.3 µM | 35 µM | > 100 µM
15 | CC(=O)/C(=C\n1c(=S)[nH]c2ccc([N+](=O)[O-])cc21)C(=O)Nc1ccccc1C |  | > 100 µM |  | > 100 µM |  | > 100 µM |  | > 100 µM |  | > 100 µM |  | > 100 µM |  | > 100 µM |  | > 100 µM |  | > 100 µM |  | > 100 µM
16 | NC(=NCc1ccccc1)N/N=C\c1ccnc2ccccc12 |  | 32.1 µM |  | 27 µM |  | 25.5 µM |  | 46 µM |  | 38.6 µM |  | 33 µM |  | 32.2 µM |  | 29.2 µM |  | 20 µM |  | 36.6 µM
